The source made the active and inactive calls. The calls are words filed in the database; no cut-off is given here.
Legend:
[1] = Cardioprotective activity in Sprague-Dawley rat cardiomyocytes assessed as reduction of hypoxia/reoxygenation-induced mitochondrial calcium flux at 10 uM after 15 mins by Rhod 2AM staining relative to control; type: functional, cell-based; parameters: scale not given: the % may be the effect or the level left; details: Cardiac muscle cell
[2] = Cardioprotective activity in Sprague-Dawley rat cardiomyocytes assessed as prevention of hypoxia/reoxygenation-induced collapse of state 3 respiration in presence of 100 uM ADP; type: functional, cell-based; details: Cardiac muscle cell
[3] = test system: Heart; test: Cardioprotective activity in Sprague-Dawley rat heart assessed as reduction of hypoxia/reoxygenation-induced infarct size at 10 uM treated 30 mins before reoxygenation by triphenyltetrazolium chloride staining (reference value: 42.10 +/- 7.36%); type: functional; parameters: scale not given: the % may be the effect or the level left
[4] = Reduction of ouabain-induced mitochondrial calcium flux in Sprague-Dawley rat cardiomyocytes at 10 uM after 15 mins by Rhod 2AM staining relative to control; type: functional, Cardiac muscle cell; parameters: scale not given: the % may be the effect or the level left
[5] = species: Rattus norvegicus; test: Inhibition of calcium-induced cardiac mitochondria swelling in Sprague-Dawley rat at 1 uM after 10 mins; type: functional; details: Heart
[6] = Cardioprotective activity in Sprague-Dawley rat cardiomyocytes assessed as reduction of hypoxia/reoxygenation-induced mitochondrial superoxide level at 10 uM after 15 mins by MitoSOX red staining relative to control; type: functional, cell-based; parameters: scale not given: the % may be the effect or the level left; details: Cardiac muscle cell

**Q.** Which Activity [1] does the source give for `Oc1ccc(-c2ccc3cc(O)ccc3c2)c(O)c1` here?
**A.** The Activity was 168%.

**Q.** What about the Activity [2] of the same compound?
**A.** Its Activity is “Active”.

**Q.** What about the Activity [3] of the same compound?
**A.** Its Activity is 3.92%.

**Q.** What about the Activity [4] of the same compound?
**A.** Its Activity is 111.82%.

**Q.** And the inhibition [5]?
**A.** The inhibition was “Active”.

**Q.** And the Activity [6]?
**A.** Its Activity is 98.1%.

— ChEMBL document CHEMBL2401629, “HS-1793, a recently developed resveratrol analogue protects rat heart against hypoxia/reoxygenation injury via attenuating mitochondrial damage” (2013)
